The text below walks through data of patent publication US10183949B2, “Pyrimidinone derivative having autotaxin-inhibitory activity” (The University of Tokyo, priority 2014, dated 2019).

The assay concerns the target T1, Human autotaxin enzyme (Homo sapiens, UniProt Q13822).
T1 construct: purchased R&D System
Put plainly: Evaluation of autotaxin inhibitor, 18:0 Lyso PC / choline assay (Test Example 2). Format: biochemical. To be noted: human autotaxin enzyme, 18:0 Lyso PC substrate, choline assay, room temperature 2 hours; read-out: Inhibitor activity (IC50). The protocol:
Solution B containing 100 mM Tris-HCl buffer (pH7.5), 150 mM NaCl, 5 mM MgCl2, and 0.05% Triton X-100 was prepared. Human autotaxin enzyme (purchased from R&D System) was diluted with Solution B, and 2.5 μl of which was added to a solution of test compound in DMSO. Furthermore, 2.5 μl of 200 μM 18:0 Lyso PC (purchased from Avanti Polar Lipids) in Solution B was added and allowed to react at room temperature for 2 hours. After completion of the reaction, 15 μl of the coline assay reagent. (100 mM Tris-HCl buffer (pH7.5), 5 mM. MgCl2, 77 μg/ml coline oxidase, 10 μg/ml peroxydase, 25μM 10-acetyl-3,7-dihydroxyphenoxazine, and excess autotaxin inhibitor) was added and allowed to react at room temperature for 20 minutes. The fluorescent dye Resorufin, which was produced by the reaction, was detected. The fluorescence was detected using ViewLux
(PerkinElmer, Inc.) with a excitation wavelength of 531 nm and a fluorescence wavelength of 598 nm.
The percent inhibition of the test compound was calculated by assuming the sample with no test compound as 0% inhibition and the sample with no enzyme as 100% inhibition, and the percent inhibitions at different concentrations of the test compound were plotted to obtain a concentration-dependent curve.
As to `CCCCCn1c(-c2ccc(Cl)cc2)cc(=O)n(C)c1=N` [Compound I-0001], the IC50 was at least 1000 nM.

Turning to `CCCCCc1nc(-c2ccc(Cl)cc2)[nH]c(=O)c1Cc1ccc(C(=O)O)cc1` [Compound I-0002], the IC50 lay within 100 to 1000 nM.

Take `CCCCCc1nc(-c2ccc(Cl)cc2)[nH]c(=O)c1Cc1cccc(C(=O)O)c1` [Compound I-0003]: the IC50 lay in the range of 100 to 1000 nM.

For `CCCCCNc1nc(-c2ccc(C(F)(F)F)cc2)cc(=O)n1Cc1ccccc1` [Compound I-0004], the IC50 is at least 1000 nM.

With `CCCCCc1nc(-c2ccc(Cl)cc2)cc(=O)n1C` [Compound I-0005], the IC50 is at least 1000 nM.

For the compound `CCCCCc1nc(-c2ccc(Cl)cc2)cc(=O)n1CC` [Compound I-0006], the IC50 is at least 1000 nM.

For `CCCCCc1nc(-c2ccc(Cl)cc2)cc(=O)n1Cc1ccccc1` [Compound I-0007], the IC50 is at least 1000 nM.

Regarding `CCCCCc1nc(-c2ccc(Cl)cc2)cc(=O)n1Cc1ccc(C(=O)O)cc1` [Compound I-0008], the IC50 lay in the range of 100 to 1000 nM.

For the compound `CCCCCc1nc(-c2ccc(Cl)cc2)cc(=O)n1Cc1cccc(C(=O)O)c1` [Compound I-0009], the IC50 fell in the range of 10 to 100 nM.

As to `CCCCCNc1nc(-c2ccc(C(F)(F)F)cc2)cc(=O)n1Cc1ccc(C(=O)O)cc1` [Compound I-0010], the IC50 was in the range of 100 to 1000 nM.

Take `CCCCCNc1nc(-c2ccc(C(F)(F)F)cc2)cc(=O)n1Cc1cccc(C(=O)OC(C)(C)C)c1` [Compound I-0011]: the IC50 was at least 1000 nM.

`CCCCCNc1nc(-c2ccc(C(F)(F)F)cc2)cc(=O)n1Cc1cccc(C(=O)O)c1` [Compound I-0012]: the IC50 fell in the range of 10 to 100 nM.

With `CCCCCNc1nc(-c2ccc(C(F)(F)F)cc2)cc(=O)n1Cc1cccc(C(=O)NCC(N)=O)c1` [Compound I-0013], the IC50 was in the range of 100 to 1000 nM.

In the case of `CCCCCNc1nc(-c2ccc(C(F)(F)F)cc2)cc(=O)n1Cc1cccc(C(=O)NC(Cc2ccccc2)C(=O)O)c1` (stereo not shown) [Compound I-0014], the IC50 lay within 100 to 1000 nM.

As for `CCCCCNc1nc(-c2ccc(C(F)(F)F)cc2)cc(=O)n1Cc1cccc(C(=O)NCC(=O)O)c1` [Compound I-0015], the IC50 was 10 to 100 nM.

With `CCCCCNc1nc(-c2ccc(C(F)(F)F)cc2)cc(=O)n1Cc1cccc(C(=O)NCCC(=O)O)c1` [Compound I-0016], the 50% inhibitory concentration (IC50) was in the range of 100 to 1000 nM.

For the compound `CCCCCNc1nc(-c2ccc(C(F)(F)F)cc2)cc(=O)n1Cc1ccc(C(=O)NC(Cc2ccccc2)C(=O)O)cc1` (stereo not shown) [Compound I-0017], the IC50 fell in the range of 100 to 1000 nM.

With `CCCCCNc1nc(-c2ccc(C(F)(F)F)cc2)cc(=O)n1Cc1ccc(C(=O)NCC(=O)O)cc1` [Compound I-0018], the IC50 was in the range of 100 to 1000 nM.

Regarding `CCCCCNc1nc(-c2ccc(C(F)(F)F)cc2)cc(=O)n1Cc1ccc(C(=O)NCC(N)=O)cc1` [Compound I-0019], the IC50 was at least 1000 nM.

On to `CCCCCNc1nc(-c2ccc(C#N)cc2)cc(=O)n1Cc1cccc(C(=O)OC(C)(C)C)c1` [Compound I-0021], for which the IC50 fell in the range of 100 to 1000 nM.

With `CCCCCNc1nc(-c2ccc(C#N)cc2)cc(=O)n1Cc1cccc(C(=O)O)c1` [Compound I-0022], the IC50 lay in the range of 10 to 100 nM.

In the case of `CCCCCc1nc(-c2ccc(Cl)cc2)cc(=O)n1CC(=O)OC` [Compound I-0023], the IC50 is 10 to 100 nM.

Take `CCCCCc1nc(-c2ccc(Cl)cc2)cc(=O)n1CC(=O)NC(Cc1ccccc1)C(=O)O` (stereo not shown) [Compound I-0024]: the IC50 was under 10 nM.

As for `CCCCCc1nc(-c2ccc(Cl)cc2)cc(=O)n1CC(=O)NC(C)C` [Compound I-0026], the IC50 was in the range of 10 to 100 nM.

Consider `CCCCCc1nc(-c2ccc(Cl)cc2)cc(=O)n1CC(=O)NCCO` [Compound I-0027], for which the IC50 lay in the range of 100 to 1000 nM.

Regarding `CCCCCc1nc(-c2ccc(Cl)cc2)cc(=O)n1CC(=O)NC1COC1` [Compound I-0028], the IC50 was in the range of 10 to 100 nM.

For the compound `CCCCCc1nc(-c2ccc(Cl)cc2)cc(=O)n1CC(=O)N(C)CCO` [Compound I-0029], the IC50 was 100 to 1000 nM.

Take `CCCCCc1nc(-c2ccc(Cl)cc2)cc(=O)n1CC(=O)NCCCO` [Compound I-0030]: the IC50 lay in the range of 100 to 1000 nM.

Turning to `CCCCCc1nc(-c2ccc(Cl)cc2)cc(=O)n1CC(=O)NCCC(N)=O` [Compound I-0031], the IC50 was 100 to 1000 nM.

For `CCCCCc1nc(-c2ccc(Cl)cc2)cc(=O)n1CC(=O)NCCN(C)C` [Compound I-0032], the IC50 fell in the range of 100 to 1000 nM.

Consider `CCCCCc1nc(-c2ccc(Cl)cc2)cc(=O)n1CC(=O)NCC1(CO)CC1` [Compound I-0033], for which the IC50 fell in the range of 10 to 100 nM.

For the compound `CCCCCc1nc(-c2ccc(Cl)cc2)cc(=O)n1CC(=O)NCc1ccccc1` [Compound I-0034], the IC50 is 100 to 1000 nM.

For the compound `CCCCCc1nc(-c2ccc(Cl)cc2)cc(=O)n1CC(=O)NCC1(CO)COC1` [Compound I-0035], the concentration for half-maximal inhibition (IC50) is 10 to 100 nM.

Take `CCCCCc1nc(-c2ccc(Cl)cc2)cc(=O)n1CC(=O)N(C)Cc1ccccc1` [Compound I-0036]: the IC50 fell in the range of 100 to 1000 nM.

Turning to `CCCCCc1nc(-c2ccc(Cl)cc2)cc(=O)n1CC(=O)NCC1CCC(=O)NC1` (stereo not shown) [Compound I-0037], the IC50 is 100 to 1000 nM.

As for `CCCCCc1nc(-c2ccc(Cl)cc2)cc(=O)n1CC(=O)NCc1cccc(=O)n1C` [Compound I-0038], the IC50 lay in the range of 100 to 1000 nM.

For `CCCCCc1nc(-c2ccc(Cl)cc2)cc(=O)n1CC(=O)NC(C)C(=O)O` (stereo not shown) [Compound I-0039], the IC50 is 10 to 100 nM.

Consider `CCCCCc1nc(-c2ccc(Cl)cc2)cc(=O)n1CC(=O)NCCC(=O)O` [Compound I-0040], for which the IC50 was 10 to 100 nM.

Regarding `CCCCCc1nc(-c2ccc(Cl)cc2)cc(=O)n1CC(=O)NCc1ccc(C(=O)O)cc1` [Compound I-0041], the IC50 was in the range of 10 to 100 nM.

As for `CCCCCc1nc(-c2ccc(Cl)cc2)cc(=O)n1CC(=O)N1CCC(C(=O)O)CC1` [Compound I-0042], the IC50 is under 10 nM.

`CCCCCc1nc(-c2ccc(Cl)cc2)cc(=O)n1CC(=O)NCCCCCC(=O)O` [Compound I-0043]: the IC50 lay within 10 to 100 nM.

Turning to `CCCCCc1nc(-c2ccc(Cl)cc2)cc(=O)n1CC(=O)NCCCC(=O)O` [Compound I-0044], the IC50 was under 10 nM.

As for `CCCCCc1nc(-c2ccc(Cl)cc2)cc(=O)n1CC(=O)N1CCC(CC(=O)O)CC1` [Compound I-0045], the IC50 was under 10 nM.

As to `CCCCCc1nc(-c2ccc(Cl)cc2)cc(=O)n1CC(=O)N1CCC(c2ccccc2C(=O)O)CC1` [Compound I-0046], the IC50 was 10 to 100 nM.

In the case of `CCCCCc1nc(-c2ccc(Cl)cc2)cc(=O)n1CC(=O)N1CCCC(c2ccc(C(=O)O)cc2)C1` (stereo not shown) [Compound I-0047], the IC50 is 100 to 1000 nM.

As to `CCCCCc1nc(-c2ccc(Cl)cc2)cc(=O)n1CC(=O)N1CCN(CC(=O)O)CC1` [Compound I-0048], the IC50 was under 10 nM.

Consider `CCCCCc1nc(-c2ccc(Cl)cc2)cc(=O)n1CC(=O)N1CCCCC1C(=O)O` (stereo not shown) [Compound I-0049], for which the IC50 was 100 to 1000 nM.

As to `CCCCCc1nc(-c2ccc(Cl)cc2)cc(=O)n1CC(=O)NC(C(=O)O)C(C)C` (stereo not shown) [Compound I-0050], the IC50 is 100 to 1000 nM.

As to `CCCCCc1nc(-c2ccc(Cl)cc2)cc(=O)n1CC(=O)NC(CC)C(=O)O` (stereo not shown) [Compound I-0051], the IC50 is under 10 nM.

As to `CCCCCc1nc(-c2ccc(Cl)cc2)cc(=O)n1CC(=O)NC(CO)C(=O)O` (stereo not shown) [Compound I-0052], the half-maximal inhibitory concentration (IC50) is under 10 nM.

As to `CCCCCc1nc(-c2ccc(Cl)cc2)cc(=O)n1CC(=O)N1CCC(c2cccc(C(=O)O)c2)CC1` [Compound I-0053], the IC50 lay within 10 to 100 nM.

As for `CCCCCc1nc(-c2ccc(Cl)cc2)cc(=O)n1CC(=O)NCc1ccccc1C(=O)O` [Compound I-0054], the IC50 was in the range of 100 to 1000 nM.

Turning to `CCCCCc1nc(-c2ccc(Cl)cc2)cc(=O)n1CC(=O)NCC(=O)NCC(=O)O` [Compound I-0055], the IC50 was under 10 nM.

`CCCCCc1nc(-c2ccc(Cl)cc2)cc(=O)n1CC(=O)NC(C)(C)C(=O)O` [Compound I-0056]: the IC50 is under 10 nM.

`CCCCCc1nc(-c2ccc(Cl)cc2)cc(=O)n1CC(=O)NC1(C(=O)O)CCCC1` [Compound I-0057]: the IC50 lay within 10 to 100 nM.

On to `CCCCCc1nc(-c2ccc(Cl)cc2)cc(=O)n1CC(=O)NC1(C(=O)O)CCOCC1` [Compound I-0058], for which the concentration for half-maximal inhibition (IC50) was at least 1000 nM.

`CCCCCc1nc(-c2ccc(Cl)cc2)cc(=O)n1CC(=O)NCC(=O)N1CCC(C(=O)O)CC1` [Compound I-0059]: the IC50 lay in the range of 10 to 100 nM.

Take `CCCCCc1nc(-c2ccc(Cl)cc2)cc(=O)n1CC(=O)NC(C(=O)O)c1ccc(O)cc1` (stereo not shown) [Compound I-0060]: the IC50 lay in the range of 10 to 100 nM.

For the compound `CCCCCc1nc(-c2ccc(Cl)cc2)cc(=O)n1CC(=O)NC(CC(=O)O)c1ccccc1` (stereo not shown) [Compound I-0061], the IC50 lay in the range of 10 to 100 nM.

`CCCCCc1nc(-c2ccc(Cl)cc2)cc(=O)n1CC(=O)N(CCC(=O)O)C1CCCC1` [Compound I-0062]: the IC50 lay in the range of 10 to 100 nM.

In the case of `CCCCCc1nc(-c2ccc(Cl)cc2)cc(=O)n1CC(=O)NC1CCC(C(=O)O)CC1` (stereo not shown) [Compound I-0063], the IC50 was under 10 nM.

For the compound `CCCCCc1nc(-c2ccc(Cl)cc2)cc(=O)n1CC(=O)NCCCCC(=O)O` [Compound I-0064], the IC50 is under 10 nM.

As to `CCCCCc1nc(-c2ccc(Cl)cc2)cc(=O)n1CC(=O)NCC(=O)O` [Compound I-0065], the IC50 lay in the range of 10 to 100 nM.

`CCCCCc1nc(-c2ccc(Cl)cc2)cc(=O)n1CC(=O)N1CCC(C(=O)O)C1` (stereo not shown) [Compound I-0066]: the IC50 is at least 1000 nM.

By IC50 is commonly meant the concentration that gives 50% inhibition.
